Literature values, collected in patent US20240325308A1, “AMNIOTIC FLUID STABILIZED COMPOSITIONS AND METHODS FOR IN UTERO DELIVERY OF THERAPEUTIC AGENTS” (The Trustees of the University of Pennsylvania, priority 2021, published 2024).

Test system: fetal lung
Conditions: vitelline vein injection, gestational age E16 fetuses

SMILES: CCCCCCCCCCCCC(O)CN(CCOCCN(CC(O)CCCCCCCCCCCC)CC(O)CCCCCCCCCCCC)CCN1CCN(CCOCCN(CC(O)CCCCCCCCCCCC)CC(O)CCCCCCCCCCCC)CC1 (stereo not shown) [B-4, 1,1′-((2-(2-(4-(2-((2-(2-(bis(2-hydroxytetradecyl)amino)ethoxy)ethyl)(2-hydroxytetradecyl)amino)ethyl)piperazin-1-yl)ethoxy)ethyl)azanediyl)bis(tetradecan-2-ol)]
- Fetal lung delivery of LNPs formulated with the ionizable lipid: highest fetal lung delivery
